Where a name gives a salt, the structure may show the parent alone.
What follows are compounds tested against T1, human CaMKIIδ (Homo sapiens, UniProt Q13557) (assay: In vitro CaMKII inhibitory activity (binding assay, TR-FRET)). Conditions: Table 1, GST-tagged human CaMKIIδ, activity ranks.
T1 construct: Full-length, glutathione-S-transferase(GST)-tagged, human CaMKIIδ was purchased from Carna Biosciences; purchased Carna Biosciences (CaMKIIδ); Wako Pure Chemical Industries (calmodulin) 02-111
Protocol: Evaluation of In Vitro CaMKII Inhibitory Activity (Binding Assay)
In vitro CaMKIIδ inhibitory activity was evaluated by a binding assay.
Full-length, glutathione-S-transferase(GST)-tagged, human CaMKIIδ was purchased from Carna Biosciences (product #02-111, Kobe, Japan). Full-length bovine calmodulin was purchased from Wako Pure Chemical Industries (Osaka, Japan). Terbium-labeled anti-GST antibody (Tb-anti-GST Ab) was purchased from Life Technologies (Carlsbad, Calif., USA). Boron-dipyrromethene (BODIPY)-labeled probe ligand was synthesized as described below.
Time-Resolved Fluorescence Resonance Energy Transfer (TR-FRET) Assay
All assays were conducted using 384-well, white, flat-bottomed plates (product #784075, Greiner Bio-One, Frickenhausen, Germany) in kinase assay buffer, which consists of 50 mM HEPES pH 7.6, 10 mM MgCl2, 1 mM EGTA, 0.01% Brig-35, 0.1 mM DTT). The fluorescent probe ligand was added at a final concentration of 300 nM to solutions containing 0.21 nM Tb-anti-GST Ab, 1 mM CaCl2, 10 μg/mL calmodulin, and 0.5 nM GST-tagged CaMKIIδ. After shaded incubation of the protein-probe mixture on ice for 30 min, the premix was dispensed in the assay plate including test inhibitors with 4 fold dilution series of eight concentrations. After 1 hr incubation at room temperature, TR-FRET signals were measured in duplicate using an EnVision microplate reader (Perkin Elmer, Waltham, Mass., USA). The solution in each well was excited with a laser (λ=340 nm) reflected by a dichroic mirror (D400/D505 (Perkin Elmer) through an excitation filter (UV (TRF) 340, (Perkin Elmer)), and fluorescence from Tb and BODIPY were detected through two emission filters (CFP 495 (Perkin Elmer) for Tb, Emission 520 (Perkin Elmer) for BODIPY).
The percentage of inhibition of test compounds was calculated according to equation (1) Inhibition(%)=100×(μH−T)/(μH−μL) (1)
Where T is the value of the wells containing test compounds and μH and μL are the mean values of the 0% and 100% inhibition control wells, respectively. The values of the 0 and 100% controls were the signals obtained in the absence and presence of 3 μM its parent compound, respectively. The half maximal inhibitory concentration (IC50) of test compounds was calculated by fitting the data with the logistic equation using XLfit (IDBS, Guildford, UK). The IC50 was classified according to the following activity ranks.

Row | Structure (SMILES) | IC50
1 | C[C@@H](Cn1cnnn1)Oc1cc(-c2cnc(Nc3cn([C@H]4CC[C@H](N5CCOCC5)CC4)nc3O)nc2)ccc1Cl [Example 462, 4-((5-(3-(((S)-1-(1H-tetrazol-1-yl)propan-2-yl)oxy)-4-chlorophenyl)pyrimidin-2-yl)amino)-1-((1r,4r)-4-morpholinocyclohexyl)-1H-pyrazol-3-ol] | < 10 nM
2 | CCOCCOc1nn([C@H]2CC[C@H](N3CCOCC3)CC2)cc1Nc1ncc(-c2ccc(C#N)c(O[C@@H](C)Cn3cnnn3)c2)cn1 [Example 8, 2-(((S)-1-(1H-tetrazol-1-yl)propan-2-yl)oxy)-4-(2-((3-(2-ethoxyethoxy)-1-((1r,4r)-4-morpholinocyclohexyl)-1H-pyrazol-4-yl)amino)pyrimidin-5-yl)benzonitrile] | < 10 nM
3 | C[C@@H](Cn1cnnn1)Oc1cc(-c2cnc(Nc3cn([C@H]4CC[C@H](N5CCOCC5)CC4)nc3O)nc2)ccc1C#N [Example 461, 2-(((S)-1-(1H-tetrazol-1-yl)propan-2-yl)oxy)-4-(2-((3-hydroxy-1-((1r,4r)-4-morpholinocyclohexyl)-1H-pyrazol-4-yl)amino)pyrimidin-5-yl)benzonitrile] | < 10 nM
4 | COCCOCCOc1nn([C@H]2CC[C@H](N3C[C@@H](C)O[C@@H](C)C3)CC2)cc1Nc1ncc(-c2ccc(Cl)c(O[C@@H](C)Cn3cnnn3)c2)cn1 [Example 240, 5-(3-(((S)-1-(1H-tetrazol-1-yl)propan-2-yl)oxy)-4-chlorophenyl)-N-(1-((1r,4r)-4-((2S,6R)-2,6-dimethylmorpholino)cyclohexyl)-3-(2-(2-methoxyethoxy)ethoxy)-1H-pyrazol-4-yl)pyrimidin-2-amine hydrochloride] | < 10 nM
5 | C[C@@H](Cn1cnnn1)Oc1cc(-c2cnc(Nc3cn([C@H]4CC[C@H](N5[C@@H]6CC[C@H]5COC6)CC4)nc3OCCS(C)(=O)=O)nc2)ccc1Cl [Example 86, 5-(3-(((S)-1-(1H-tetrazol-1-yl)propan-2-yl)oxy)-4-chlorophenyl)-N-(1-((1r,4r)-4-((1R,5S)-3-oxa-8-azabicyclo[3.2.1]octan-8-yl)cyclohexyl)-3-(2-(methylsulfonyl)ethoxy)-1H-pyrazol-4-yl)pyrimidin-2-amine] | < 10 nM
6 | COCCOc1nn([C@H]2CC[C@H](N3CCOCC3)CC2)cc1Nc1ncc(-c2ccc(Cl)c(O[C@@H](C)Cn3cnnn3)c2)cn1 [Example 2, 5-(3-(((S)-1-(1H-tetrazol-1-yl)propan-2-yl)oxy)-4-chlorophenyl)-N-(3-(2-methoxyethoxy)-1-((1r,4r)-4-morpholinocyclohexyl)-1H-pyrazol-4-yl)pyrimidin-2-amine] | < 10 nM
7 | COCCOCCOc1nn([C@H]2CC[C@H](N3CCOCC3)CC2)cc1Nc1ncc(-c2ccc(Cl)c(O[C@@H](C)Cn3cnnn3)c2)cn1 [Example 49, 5-(3-(((S)-1-(1H-tetrazol-1-yl)propan-2-yl)oxy)-4-chlorophenyl)-N-(3-(2-(2-methoxyethoxy)ethoxy)-1-((1r,4r)-4-morpholinocyclohexyl)-1H-pyrazol-4-yl)pyrimidin-2-amine hydrochloride] | < 10 nM
8 | COCCCOc1nn([C@H]2CC[C@H](N3CCOCC3)CC2)cc1Nc1ncc(-c2ccc(C#N)c(O[C@@H](C)Cn3cncn3)c2)cn1 [Example 28, 2-(((S)-1-(1H-1,2,4-triazol-1-yl)propan-2-yl)oxy)-4-(2-((3-(3-methoxypropoxy)-1-((1r,4r)-4-morpholinocyclohexyl)-1H-pyrazol-4-yl)amino)pyrimidin-5-yl)benzonitrile] | < 10 nM
9 | COCCCOc1nn([C@H]2CC[C@H](N3CCOCC3)CC2)cc1Nc1ncc(-c2ccc(Cl)c(O[C@@H](C)Cn3cnnn3)c2)cn1 [Example 27, 5-(3-(((S)-1-(1H-tetrazol-1-yl)propan-2-yl)oxy)-4-chlorophenyl)-N-(3-(3-methoxypropoxy)-1-((1r,4r)-4-morpholinocyclohexyl)-1H-pyrazol-4-yl)pyrimidin-2-amine] | < 10 nM

Same assay, conditions: Table 4, GST-tagged human CaMKIIδ, activity ranks

Row | Structure (SMILES) | IC50
10 | COCCOCCOCCOc1nn([C@H]2CC[C@H](N3CCOCC3)CC2)cc1Nc1ncc(-c2ccc(Cl)c(O[C@@H](C)Cn3cnnn3)c2)cn1 [Example 511, 5-(3-(((S)-1-(1H-tetrazol-1-yl)propan-2-yl)oxy)-4-chlorophenyl)-N-(3-(2-(2-(2-methoxyethoxy)ethoxy)ethoxy)-1-((1r,4r)-4-morpholinocyclohexyl)-1H-pyrazol-4-yl)pyrimidin-2-amine] | 10 to 100 nM
11 | C[C@@H](Cn1cnnn1)Oc1cc(-c2cnc(Nc3cn([C@H]4CC[C@H](N5CCOCC5)CC4)nc3OCC3CCOCC3)nc2)ccc1Cl [Example 497, 5-(3-(((S)-1-(1H-tetrazol-1-yl)propan-2-yl)oxy)-4-chlorophenyl)-N-(1-((1r,4r)-4-morpholinocyclohexyl)-3-((tetrahydro-2H-pyran-4-yl)methoxy)-1H-pyrazol-4-yl)pyrimidin-2-amine] | < 10 nM
12 | Cc1ncc(COc2nn([C@H]3CC[C@H](N4C[C@@H](C)O[C@@H](C)C4)CC3)cc2Nc2ncc(-c3ccc(C#N)c(O[C@@H](C)Cn4cnnn4)c3)cn2)s1 [Example 476, 2-(((S)-1-(1H-tetrazol-1-yl)propan-2-yl)oxy)-4-(2-((1-((1r,4r)-4-((2S,6R)-2,6-dimethylmorpholino)cyclohexyl)-3-((2-methylthiazol-5-yl)methoxy)-1H-pyrazol-4-yl)amino)pyrimidin-5-yl)benzonitrile] | < 10 nM
13 | C[C@@H]1CN([C@H]2CC[C@H](n3cc(Nc4ncc(-c5ccc(Cl)c(O[C@@H](C)Cn6cnnn6)c5)cn4)c(OCC4COC4)n3)CC2)C[C@H](C)O1 [Example 480, 5-(3-(((S)-1-(1H-tetrazol-1-yl)propan-2-yl)oxy)-4-chlorophenyl)-N-(1-((1r,4r)-4-((2S,6R)-2,6-dimethylmorpholino)cyclohexyl)-3-(oxetan-3-ylmethoxy)-1H-pyrazol-4-yl)pyrimidin-2-amine] | < 10 nM
14 | C[C@@H](Cn1cnnn1)Oc1cc(-c2cnc(Nc3cn([C@H]4CC[C@H](N5CCOCC5)CC4)nc3OCC3COC3)nc2)ccc1Cl [Example 491, 5-(3-(((S)-1-(1H-tetrazol-1-yl)propan-2-yl)oxy)-4-chlorophenyl)-N-(1-((1r,4r)-4-morpholinocyclohexyl)-3-(oxetan-3-ylmethoxy)-1H-pyrazol-4-yl)pyrimidin-2-amine] | < 10 nM
15 | C[C@@H]1CN([C@H]2CC[C@H](n3cc(Nc4ncc(-c5ccc(Cl)c(O[C@@H](C)Cn6cnnn6)c5)cn4)c(OCCO)n3)CC2)C[C@H](C)O1 [Example 481, 2-((4-((5-(3-(((S)-1-(1H-tetrazol-1-yl)propan-2-yl)oxy)-4-chlorophenyl)pyrimidin-2-yl)amino)-1-((1r,4r)-4-((2S,6R)-2,6-dimethylmorpholino)cyclohexyl)-1H-pyrazol-3-yl)oxy)ethan-1-ol] | < 10 nM
16 | C[C@@H](Cn1cnnn1)Oc1cc(-c2cnc(Nc3cn([C@H]4CC[C@H](N5CCOCC5)CC4)nc3OCc3ncco3)nc2)ccc1Cl [Example 503, 5-(3-(((S)-1-(1H-tetrazol-1-yl)propan-2-yl)oxy)-4-chlorophenyl)-N-(1-((1r,4r)-4-morpholinocyclohexyl)-3-(oxazol-2-ylmethoxy)-1H-pyrazol-4-yl)pyrimidin-2-amine] | < 10 nM
17 | C[C@@H](Cn1cnnn1)Oc1cc(-c2cnc(Nc3cn([C@H]4CC[C@H](N5CCOCC5)CC4)nc3OCCCC#N)nc2)ccc1Cl [Example 493, 4-((4-((5-(3-(((S)-1-(1H-tetrazol-1-yl)propan-2-yl)oxy)-4-chlorophenyl)pyrimidin-2-yl)amino)-1-((1r,4r)-4-morpholinocyclohexyl)-1H-pyrazol-3-yl)oxy)butanenitrile] | < 10 nM
18 | C[C@@H](Cn1cnnn1)Oc1cc(-c2cnc(Nc3cn([C@H]4CC[C@H](N5CCOCC5)CC4)nc3OCCC(C)(C)O)nc2)ccc1C#N [Example 495, 2-(((S)-1-(1H-tetrazol-1-yl)propan-2-yl)oxy)-4-(2-((3-(3-hydroxy-3-methylbutoxy)-1-((1r,4r)-4-morpholinocyclohexyl)-1H-pyrazol-4-yl)amino)pyrimidin-5-yl)benzonitrile] | < 10 nM
19 | C[C@@H](Cn1cnnn1)Oc1cc(-c2cnc(Nc3cn([C@H]4CC[C@H](N5CCOCC5)CC4)nc3OCc3ncccn3)nc2)ccc1Cl [Example 509, 5-(3-(((S)-1-(1H-tetrazol-1-yl)propan-2-yl)oxy)-4-chlorophenyl)-N-(1-((1r,4r)-4-morpholinocyclohexyl)-3-(pyrimidin-2-ylmethoxy)-1H-pyrazol-4-yl)pyrimidin-2-amine] | 10 to 100 nM

— patent US11130752B2, “Aminopyrimidine compound” (Cardurion Pharmaceuticals, LLC, priority 2018, dated 2021)
